According to article PMC5218480 (PLoS ONE, 2017):

System: MV-4-11 cells
Assay: Gene expression microarray analysis (Affymetrix PrimeView) and GSEA
Type: cell-based, human
Design: RFU PODN (11730768_x_at) / Fold change /veh PODN (11730768_x_at) / RFU LINC00158 (11744669_a_at) / Fold change /veh LINC00158 (11744669_a_at) / RFU DUSP10 (11751237_a_at) / Fold change /veh DUSP10 (11751237_a_at) / RFU ID3 (11757404_x_at) / Fold change /veh ID3 (11757404_x_at) / RFU PLEKHG5 (11737974_s_at) / Fold change /veh PLEKHG5 (11737974_s_at) / RFU LRRC4B (11730491_at) / Fold change /veh LRRC4B (11730491_at) / RFU GIMAP4 (11747438_a_at) / Fold change /veh GIMAP4 (11747438_a_at) / RFU KRT8 (11758183_x_at) / Fold change /veh KRT8 (11758183_x_at) / RFU CNN1 (11734310_a_at) / Fold change /veh CNN1 (11734310_a_at) / RFU VPS37D (11726825_at) / Fold change /veh VPS37D (11726825_at) / RFU C10orf10 (11716522_x_at) / Fold change /veh C10orf10 (11716522_x_at) / RFU KIR2DL2 /// KIR2DL4 /// KIR2DL5A /// KIR2DL5B /// KIR2DS1 /// KIR2DS2 /// KIR2DS3 /// KIR2DS4 /// KIR3DL3 /// KIR3DL3 /// KIR3DS1 (11738374_at) / Fold change /veh KIR2DL2 /// KIR2DL4 /// KIR2DL5A /// KIR2DL5B /// KIR2DS1 /// KIR2DS2 /// KIR2DS3 /// KIR2DS4 /// KIR3DL3 /// KIR3DL3 /// KIR3DS1 (11738374_at) / RFU C1QL1 (11718748_at) / Fold change /veh C1QL1 (11718748_at) / RFU TMPRSS4 (11747572_a_at) / Fold change /veh TMPRSS4 (11747572_a_at) / RFU HAMP (11756126_x_at) / Fold change /veh HAMP (11756126_x_at) / RFU RNFT2 (11725882_a_at) / Fold change /veh RNFT2 (11725882_a_at) / RFU NR4A2 (11747474_a_at) / Fold change /veh NR4A2 (11747474_a_at) / RFU ABCC12 (11746883_a_at) / Fold change /veh ABCC12 (11746883_a_at) / RFU TMEM136 (11760407_x_at) / Fold change /veh TMEM136 (11760407_x_at) / RFU CLDN22 /// WWC2 (11732394_at) / Fold change /veh CLDN22 /// WWC2 (11732394_at) / RFU HLA-DPB1 (11760878_x_at) / Fold change /veh HLA-DPB1 (11760878_x_at) / RFU SPINT1 (11716480_a_at) / Fold change /veh SPINT1 (11716480_a_at) / RFU GAP43 (11754022_s_at) / Fold change /veh GAP43 (11754022_s_at) / RFU A4GNT (11735810_at) / Fold change /veh A4GNT (11735810_at) / RFU PRB3 (11715151_x_at) / Fold change /veh PRB3 (11715151_x_at) / RFU TUBB4B (11761932_at) / Fold change /veh TUBB4B (11761932_at) / RFU CAPN14 (11732068_a_at) / Fold change /veh CAPN14 (11732068_a_at) / RFU TMCC2 (11721928_a_at) / Fold change /veh TMCC2 (11721928_a_at) / RFU IRGQ (11745062_a_at) / Fold change /veh IRGQ (11745062_a_at) / RFU FAM174B (11720279_a_at) / Fold change /veh FAM174B (11720279_a_at) / RFU TMPRSS4 (11748680_a_at) / Fold change /veh TMPRSS4 (11748680_a_at) / RFU FAM212B (11763350_a_at) / Fold change /veh FAM212B (11763350_a_at) / RFU PLEKHG5 (11743358_a_at) / Fold change /veh PLEKHG5 (11743358_a_at) / RFU ZSCAN30 (11745921_a_at) / Fold change /veh ZSCAN30 (11745921_a_at) / RFU CMKLR1 (11741424_a_at) / Fold change /veh CMKLR1 (11741424_a_at) / RFU LOC101060620 /// MAPK8IP1 (11723275_at) / Fold change /veh LOC101060620 /// MAPK8IP1 (11723275_at) / RFU SPTSSB (11747773_x_at) / Fold change /veh SPTSSB (11747773_x_at) / RFU PRSS12 (11739890_at) / Fold change /veh PRSS12 (11739890_at) / RFU BIN1 (11741810_x_at) / Fold change /veh BIN1 (11741810_x_at) / RFU WNT11 (11732464_a_at) / Fold change /veh WNT11 (11732464_a_at) / RFU C10orf10 (11716521_a_at) / Fold change /veh C10orf10 (11716521_a_at) / RFU C5orf56 (11738089_at) / Fold change /veh C5orf56 (11738089_at) / RFU CYB561 (11721691_x_at) / Fold change /veh CYB561 (11721691_x_at) / RFU ANKRD19P (11752326_a_at) / Fold change /veh ANKRD19P (11752326_a_at) / RFU OR2T12 /// OR2T33 /// OR2T8 (11738714_s_at) / Fold change /veh OR2T12 /// OR2T33 /// OR2T8 (11738714_s_at) / RFU VCAN (11748164_a_at) / Fold change /veh VCAN (11748164_a_at) / RFU JSRP1 (11732532_at) / Fold change /veh JSRP1 (11732532_at) / RFU KRTAP10-11 (11738290_x_at) / Fold change /veh KRTAP10-11 (11738290_x_at) / RFU MYO3A (11730013_a_at) / Fold change /veh MYO3A (11730013_a_at) / RFU EBF3 (11725865_a_at) / Fold change /veh EBF3 (11725865_a_at) / RFU CAMK2N1 (11719241_x_at) / Fold change /veh CAMK2N1 (11719241_x_at) / RFU C5orf56 (11738088_a_at) / Fold change /veh C5orf56 (11738088_a_at) / RFU OLFML3 (11715873_a_at) / Fold change /veh OLFML3 (11715873_a_at) / RFU LOC100653217 /// NTM (11731650_a_at) / Fold change /veh LOC100653217 /// NTM (11731650_a_at) / RFU MAPK11 (11762145_a_at) / Fold change /veh MAPK11 (11762145_a_at) / RFU FIZ1 (11724087_x_at) / Fold change /veh FIZ1 (11724087_x_at) / RFU OASL (11726364_x_at) / Fold change /veh OASL (11726364_x_at) / RFU SOX15 (11748057_x_at) / Fold change /veh SOX15 (11748057_x_at) / RFU CD79A (11719716_a_at) / Fold change /veh CD79A (11719716_a_at) / RFU HIST1H1D (11736915_at) / Fold change /veh HIST1H1D (11736915_at) / RFU CASKIN2 (11723855_a_at) / Fold change /veh CASKIN2 (11723855_a_at) / RFU LOC730098 (11760151_x_at) / Fold change /veh LOC730098 (11760151_x_at) / RFU OR4N2 (11742367_at) / Fold change /veh OR4N2 (11742367_at) / RFU PRRT2 (11749266_a_at) / Fold change /veh PRRT2 (11749266_a_at) / RFU SNX32 (11753110_a_at) / Fold change /veh SNX32 (11753110_a_at) / RFU CDHR5 (11726645_a_at) / Fold change /veh CDHR5 (11726645_a_at) / RFU RCAN1 (11760418_a_at) / Fold change /veh RCAN1 (11760418_a_at) / RFU FAM167A (11723789_a_at) / Fold change /veh FAM167A (11723789_a_at) / RFU FAM26E (11764081_at) / Fold change /veh FAM26E (11764081_at) / RFU ISYNA1 (11749810_s_at) / Fold change /veh ISYNA1 (11749810_s_at) / RFU ACY1 (11761880_at) / Fold change /veh ACY1 (11761880_at) / RFU 11764098_at / Fold change /veh 11764098_at / RFU SAMD14 (11745864_x_at) / Fold change /veh SAMD14 (11745864_x_at) / RFU NPB (11741838_a_at) / Fold change /veh NPB (11741838_a_at) / RFU TMPRSS6 (11731388_a_at) / Fold change /veh TMPRSS6 (11731388_a_at) / RFU KRTAP10-2 (11738614_at) / Fold change /veh KRTAP10-2 (11738614_at) / RFU ARHGAP8 /// PRR5-ARHGAP8 (11727945_x_at) / Fold change /veh ARHGAP8 /// PRR5-ARHGAP8 (11727945_x_at) / RFU KRTAP5-7 /// NADSYN1 (11734609_at) / Fold change /veh KRTAP5-7 /// NADSYN1 (11734609_at) / RFU RASL12 (11751679_a_at) / Fold change /veh RASL12 (11751679_a_at) / RFU CDKN2B (11736163_a_at) / Fold change /veh CDKN2B (11736163_a_at) / RFU PRF1 (11729649_at) / Fold change /veh PRF1 (11729649_at) / RFU, ZNF638 /// ZNF638-IT1 / Fold change vs veh, ZNF638 /// ZNF638-IT1 / RFU, PANK3 / Fold change vs veh, PANK3 / RFU, SH3YL1 / Fold change vs veh, SH3YL1 / RFU, ZEB2 / Fold change vs veh, ZEB2 / RFU, NRIP1 / Fold change vs veh, NRIP1 / RFU, PTTG1IP / Fold change vs veh, PTTG1IP / RFU, CAPN2 / Fold change vs veh, CAPN2 / RFU, MED14 / Fold change vs veh, MED14 / RFU, SNORA58 / Fold change vs veh, SNORA58 / RFU, C1orf63 / Fold change vs veh, C1orf63 / RFU, LRRFIP1 / Fold change vs veh, LRRFIP1 / RFU, NDUFAF7 / Fold change vs veh, NDUFAF7 / RFU, SLC12A2 / Fold change vs veh, SLC12A2 / RFU, IBTK / Fold change vs veh, IBTK / RFU, ESF1 / Fold change vs veh, ESF1 / Fold change vs veh, TMEM50B / RFU, TAOK1 / Fold change vs veh, TAOK1 / RFU, ACBD3 / Fold change vs veh, ACBD3 / RFU, TMA16 / Fold change vs veh, TMA16 / RFU, RWDD3 / Fold change vs veh, RWDD3 / RFU, BCAT1 / Fold change vs veh, BCAT1 / RFU, EDEM3 / Fold change vs veh, EDEM3 / RFU, TMEM33 / Fold change vs veh, TMEM33 / RFU, WDR75 / Fold change vs veh, WDR75 / RFU, AHCTF1 / Fold change vs veh, AHCTF1 / RFU, TFRC / Fold change vs veh, TFRC / RFU, ZDHHC17 / Fold change vs veh, ZDHHC17 / RFU, NOM1 / Fold change vs veh, NOM1 / RFU, ARL8B / Fold change vs veh, ARL8B / RFU, ZBTB11 / Fold change vs veh, ZBTB11 / RFU, TAMM41 / Fold change vs veh, TAMM41 / RFU, KIAA1704 /// LOC100996395 / Fold change vs veh, KIAA1704 /// LOC100996395 / RFU, ING1 / Fold change vs veh, ING1 / RFU, TRMT61B / Fold change vs veh, TRMT61B / RFU, FUBP3 / Fold change vs veh, FUBP3 / RFU, TP53 / Fold change vs veh, TP53 / RFU, TNKS2 / Fold change vs veh, TNKS2 / RFU, ZFP14 / Fold change vs veh, ZFP14 / RFU, ACTR2 / Fold change vs veh, ACTR2 / RFU, PPP3R1 / Fold change vs veh, PPP3R1 / RFU, PIK3R1 / Fold change vs veh, PIK3R1 / RFU, HNRNPA1 / Fold change vs veh, HNRNPA1 / RFU, RNF170 / Fold change vs veh, RNF170 / RFU, ZNF28 / Fold change vs veh, ZNF28 / RFU, RNGTT / Fold change vs veh, RNGTT / RFU, OGT / Fold change vs veh, OGT / RFU, BRD1 / Fold change vs veh, BRD1 / RFU, MARS / Fold change vs veh, MARS / RFU, ZNF655 / Fold change vs veh, ZNF655 / RFU, FAHD1 / Fold change vs veh, FAHD1 / RFU, BDP1 / Fold change vs veh, BDP1 / RFU, LRRCC1 / Fold change vs veh, LRRCC1 / RFU, ARID1A / Fold change vs veh, ARID1A / RFU, ZNF146 / Fold change vs veh, ZNF146 / RFU, ZNF330 / Fold change vs veh, ZNF330 / RFU, GPN3 / Fold change vs veh, GPN3 / RFU, C9orf123 / Fold change vs veh, C9orf123 / RFU, N4BP2L2 / Fold change vs veh, N4BP2L2 / RFU, ARFIP1 / Fold change vs veh, ARFIP1 / RFU, FAM179B / Fold change vs veh, FAM179B / RFU, BCL10 / Fold change vs veh, BCL10 / RFU, UHRF1BP1L / Fold change vs veh, UHRF1BP1L / RFU, BET1 / Fold change vs veh, BET1 / RFU, CNOT2 / Fold change vs veh, CNOT2 / RFU, ZNF268 / Fold change vs veh, ZNF268 / Fold change vs veh, ZNF507 / RFU, DGCR2 / Fold change vs veh, DGCR2 / RFU, WDSUB1 / Fold change vs veh, WDSUB1 / Fold change vs veh, HSP90B1 /// MIR3652 / RFU, ADSS / Fold change vs veh, ADSS / RFU, GK / Fold change vs veh, GK / RFU, ZNF148 / Fold change vs veh, ZNF148 / RFU, TAF9 / Fold change vs veh, TAF9 / RFU, SLC1A5 / Fold change vs veh, SLC1A5 / RFU, SLMO2 / Fold change vs veh, SLMO2 / RFU, ABCC4 / Fold change vs veh, ABCC4 / RFU, LOC101060439 /// RAP1B / Fold change vs veh, LOC101060439 /// RAP1B / RFU, RFX7 / Fold change vs veh, RFX7 / RFU, GTPBP10 / Fold change vs veh, GTPBP10 / RFU, CNEP1R1 / Fold change vs veh, CNEP1R1 / RFU, BIVM-ERCC5 /// ERCC5 / Fold change vs veh, BIVM-ERCC5 /// ERCC5 / RFU, ILF3 / Fold change vs veh, ILF3 / RFU 11762660_at / Fold change /veh 11762660_at / RFU VCAN (11757783_s_at) / Fold change /veh VCAN (11757783_s_at) / RFU DDX43 (11728927_at) / Fold change /veh DDX43 (11728927_at) / RFU KRT8 (11758188_x_at) / Fold change /veh KRT8 (11758188_x_at) / RFU NKD1 (11759106_at) / Fold change /veh NKD1 (11759106_at) / RFU SRD5A1 (11742802_a_at) / Fold change /veh SRD5A1 (11742802_a_at) / RFU TPSAB1 /// TPSB2 (11721975_s_at) / Fold change /veh TPSAB1 /// TPSB2 (11721975_s_at) / RFU GSTM3 (11746129_a_at) / Fold change /veh GSTM3 (11746129_a_at) / RFU IL23R (11737362_x_at) / Fold change /veh IL23R (11737362_x_at) / RFU TMEM51 (11727254_a_at) / Fold change /veh TMEM51 (11727254_a_at) / RFU PIWIL2 (11732686_x_at) / Fold change /veh PIWIL2 (11732686_x_at) / RFU ORM1 (11744905_x_at) / Fold change /veh ORM1 (11744905_x_at) / RFU CCDC152 (11743942_at) / Fold change /veh CCDC152 (11743942_at) / RFU ECM1 (11717891_a_at) / Fold change /veh ECM1 (11717891_a_at) / RFU IL23R (11748794_a_at) / Fold change /veh IL23R (11748794_a_at) / RFU TNFAIP8L3 (11732012_x_at) / Fold change /veh TNFAIP8L3 (11732012_x_at) / RFU MBOAT4 (11741988_at) / Fold change /veh MBOAT4 (11741988_at) / RFU 11764193_at / Fold change /veh 11764193_at / RFU TMEM53 (11763286_at) / Fold change /veh TMEM53 (11763286_at) / RFU MAGEB2 (11727129_at) / Fold change /veh MAGEB2 (11727129_at) / RFU TMEM200A (11744735_a_at) / Fold change /veh TMEM200A (11744735_a_at) / RFU CCDC152 (11751479_a_at) / Fold change /veh CCDC152 (11751479_a_at) / RFU FAM211A (11726209_a_at) / Fold change /veh FAM211A (11726209_a_at) / RFU RGS16 (11746705_a_at) / Fold change /veh RGS16 (11746705_a_at) / RFU VCAN (11755009_s_at) / Fold change /veh VCAN (11755009_s_at) / RFU RHOB (11743442_s_at) / Fold change /veh RHOB (11743442_s_at) / RFU RGS16 (11720943_a_at) / Fold change /veh RGS16 (11720943_a_at) / RFU RGS16 (11720944_at) / Fold change /veh RGS16 (11720944_at) / RFU, VPS4B / Fold change vs veh, VPS4B / RFU, CREB1 / Fold change vs veh, CREB1 / RFU, DNAJC13 / Fold change vs veh, DNAJC13 / RFU, GNAQ / Fold change vs veh, GNAQ / RFU, CDK5R1 / Fold change vs veh, CDK5R1 / RFU, ZRANB3 / Fold change vs veh, ZRANB3 / RFU, CUL4A / Fold change vs veh, CUL4A / RFU, CCNY / Fold change vs veh, CCNY / RFU, UFL1 / Fold change vs veh, UFL1 / RFU, COG3 / Fold change vs veh, COG3 / RFU, DIAPH2 / Fold change vs veh, DIAPH2 / RFU, SKA2 / Fold change vs veh, SKA2 / RFU, AFF3 / Fold change vs veh, AFF3 / RFU, LMF1 / Fold change vs veh, LMF1 / RFU, IPO11 / Fold change vs veh, IPO11 / RFU, DFFB / Fold change vs veh, DFFB / RFU, FOXP1 / Fold change vs veh, FOXP1 / RFU, CARD8 / Fold change vs veh, CARD8 / RFU, STRN3 / Fold change vs veh, STRN3 / RFU, ADK / Fold change vs veh, ADK / RFU, RASSF2 / Fold change vs veh, RASSF2 / RFU, WIPF1 / Fold change vs veh, WIPF1 / RFU, LARP1B / Fold change vs veh, LARP1B / RFU, RASA1 / Fold change vs veh, RASA1 / RFU, RB1 / Fold change vs veh, RB1 / RFU, PPFIA1 / Fold change vs veh, PPFIA1 / RFU, MAT2A / Fold change vs veh, MAT2A / RFU, CCT5 / Fold change vs veh, CCT5 / RFU, WDR92 / Fold change vs veh, WDR92 / RFU, CUX1 / Fold change vs veh, CUX1 / RFU, TTC7A / Fold change vs veh, TTC7A / RFU, TMEM135 / Fold change vs veh, TMEM135 / RFU, DEPTOR / Fold change vs veh, DEPTOR / RFU, CPM / Fold change vs veh, CPM / RFU, DNAJB6 / Fold change vs veh, DNAJB6 / RFU, CACNA2D3 / Fold change vs veh, CACNA2D3 / RFU, DTX4 / Fold change vs veh, DTX4 / RFU, TFCP2 / Fold change vs veh, TFCP2 / RFU, GMCL1 /// GMCL1P1 / Fold change vs veh, GMCL1 /// GMCL1P1 / RFU, AEBP2 / Fold change vs veh, AEBP2 / RFU, SNHG1 /// SNORD22 /// SNORD25 /// SNORD26 /// SNORD27 /// SNORD28 /// SNORD29 /// SNORD31 / Fold change vs veh, SNHG1 /// SNORD22 /// SNORD25 /// SNORD26 /// SNORD27 /// SNORD28 /// SNORD29 /// SNORD31 / Fold change (Aza/veh), C12orf56 (ProbeSet 11735607_a_at) / Fold change (ACY-1035/veh), C12orf56 (ProbeSet 11735607_a_at) / Fold change (Aza/veh), FGFR1OP (ProbeSet 11751329_s_at) / Fold change (ACY-1035/veh), FGFR1OP (ProbeSet 11751329_s_at) / Fold change (Aza/veh), VPS36 (ProbeSet 11739960_a_at) / Fold change (ACY-1035/veh), VPS36 (ProbeSet 11739960_a_at) / RFU SYPL1 (11715823_x_at) / Fold change /veh SYPL1 (11715823_x_at) / RFU IGFBP7 (11715501_s_at) / Fold change /veh IGFBP7 (11715501_s_at) / RFU REEP3 (11722064_at) / Fold change /veh REEP3 (11722064_at) / RFU IGLL1 (11728026_x_at) / Fold change /veh IGLL1 (11728026_x_at): dose or concentration left out as unconfirmed
Conditions: ProbeSet 11754607_s_at; LIST B

With `Nc1ccc(-c2cccs2)cc1NC(=O)c1ccc2c(c1)cc(C1CC1)n2CCN1CCOCC1` [ACY-1035] the “Fold change vs veh, HSP90B1 /// MIR3652” value was 0.87.
